Where a SMILES comes first, the peptide text is derived from it. The star is where a group is joined. Cbz = O=C(OCc1ccccc1)*
Columns and labels:
[1] = test system: WFS1-ATF6 complex; assay: WFS1-ATF6 co-immunoprecipitation in INS-1 832/13 cells; type: cell-based, rat
Method: Both WFS1 and ATF6 are transmembrane proteins localized to the ER. The association of WFS1 with ATF6 in INS-1 832/13 cells was examined. An anti-WFS1 antibody was used to immunoprecipitate (IP) WFS1 from INS-1 832/13 cells untreated (UT) or treated with the ER stress inducer DTT (1 mM) for 0.5 hr, 1.5 hr, or 3 hr. Immunoprecipitates were then subject to immunoblot (IB) analysis using anti-ATF6, anti-WFS1, and anti-actin antibodies. […] To confirm that the interaction between WFS1 and ATF6 is recovered post-stress, an anti-WFS1 antibody was used to immunoprecipiate (IP) WFS1 from INS-1 832/13 cells untreated (UT) or treated with the ER stress inducer DTT (1 mM) for 2 hr. The cells were then chased in normal media for 0 hr and 3 hr. Immunoprecipitates were subject to immunoblot (IB) analysis using anti-ATF6, anti-WFS1, and anti-actin antibodies. The relative amount of ATF6 protein was quantified using ImageJ software.

[2] = test system: AATF mRNA; assay: AATF mRNA expression by real-time PCR in cells treated with ER stress inducers; type: cell-based, rat; mouse; conditions: for AATF mRNA expression: INS-1 832/13, neuro2A cells and mouse embryonic fibroblasts, 16 hr, TM 5 μg/ml, Tg 1 μM, MG132 2 μM, STR 0.05 and 0.01 μM
Method: Cell culture and transfection of small interfering RNA. Rat insulinoma cells, INS-1 832/13, were a gift from Dr. Christopher Newgard (Duke University Medical Center). These cells were cultured in RPMI 1640 supplemented with 10% FBS. Mouse embryonic fibroblasts, COS7 cells, and Neuro2a cells were maintained in DMEM with 10% fetal bovine serum. Human neuroblastoma cells, SH-SY5Y cells, were cultured in DMEM/F12 with 10% fetal bovine serum.
(§1) Real-time polymerase chain reaction. Total RNA was isolated from cells using RNeasy Mini Kit (Qiagen) and reverse transcribed using 1 μg of total RNA from cells with Oligo-dT primer. For the thermal cycle reaction, the iQ5 system (BioRad, Hercules, Calif.) was used at 95° C. for 10 min, 40 cycles at 95° C. for 10 sec, and at 55° C. for 30 sec.
The relative amount for each transcript was calculated by a standard curve of cycle thresholds for serial dilutions of cDNA samples and normalized to the amount of actin. The polymerase chain reaction (PCR) was done in triplicate for each sample, after which all experiments were repeated twice. The following sets of primers and Power SYBR Green PCR Master Mix (Applied Biosystems, Foster City, Calif.) were used for real-time PCR: […]

[3] = test system: ATF6; assay: ATF6 protein level immunoblot in COS7 cells expressing ATF6-HA and WFS1-FLAG; type: cell-based; conditions: MG132 15 μM, 3 hr
Method: To investigate whether the decrease in ATF6 protein level is proteosome-dependent, COS7 cells expressing ATF6-HA or ATF6-HA and WFS1-FLAG were either untreated (UT) or treated with the proteosome inhibitor MG132 (15 μM) for 3 hr. Lysates were immunoblotted with anti-HA, anti-FLAG, and anti-actin antibodies.

[4] = test system: AATF mRNA; assay: AATF mRNA by real-time PCR in wild-type, Ire1α−/− and Perk−/− mouse embryonic fibroblasts; type: cell-based; conditions: for attenuation of the induction of AATF: Ire1α−/− cells versus wild-type; for induction of AATF: Perk−/− mouse embryonic fibroblasts versus wild-type
Method: as §1
(§2) The relative amount for each transcript was calculated by a standard curve of cycle thresholds for serial dilutions of cDNA samples and normalized to the amount of actin. The polymerase chain reaction (PCR) was done in triplicate for each sample, after which all experiments were repeated twice. The following sets of primers and Power SYBR Green PCR Master Mix (Applied Biosystems, Foster City, Calif.) were used for real-time PCR:
The pathway by which AATF expression is regulated was investigated. IRE 1 and PERK are ER-resident protein kinases and regulators of the UPR. The expression levels of AATF were measured by real-time PCR in Ire1α^−/− and Perk^−/− mouse embryonic fibroblasts under ER stress conditions. […] To confirm this, Perk^−/− mouse embryonic fibroblasts were transfected with PERK expression plasmid, then AATF gene expression was measured. Chop expression was also measured as a control. PERK expression could restore both AATF and Chop expression (FIG. 2D).

[5] = test system: eIF2α phosphorylation; assay: eIF2α phosphorylation immunoblot in mouse embryonic fibroblasts; type: cell-based; parameters: dose or concentration left out as unconfirmed; conditions: 16 hr
Method: (§3) Immunoblotting. Cells were lysed for 15 min on ice at 4° C. in ice-cold M-PER buffer (PIERCE, Rockford, Ill.) containing protease inhibitors. The lysates were then cleared by centrifuging the cells at 13,000 g. Lysates were normalized for total protein, separated by SDS-PAGE (15% gel or 5%-20% gradient gel), and transferred onto a polyvinylidene difluoride membrane. To detect human AATF protein, anti-AATF antibody from Bethyl (Montgomery, Tex.) was used. To detect rat AATF protein, a rabbit anti-AATF antibody generated using a peptide, RPREADPEADPEEATR, was used. […]
It is established that PERK-mediated eIF2α phosphorylation has role in the up-regulation of its target genes (see, e.g., Harding, H. P., et al., Mol Cell 6, 1099-1108 (2000); Harding et al., Nature 397, 271-274 (1999)). Whether eIF2α phosphorylation could increase AATF expression was determined. Wild-type and Perk^−/− mouse fibroblasts were treated with salubrinal, a compound that increases eIF2α phosphorylation (see Boyce, M., et al., Science (New York, N.Y. 307, 935-939 (2005)), then AATF expression was measured, with Chop expression as a control. AATF expression, as well as Chop expression, was increased by salubrinal treatment in both wild-type and Perk^−/− mouse embryonic fibroblasts (FIG. 2C, upper panel). Immunoblot confirmed that eIF2α phosphorylation levels were increased by salubrinal (FIG. 2C, lower panel).

[6] = test system: Chop mRNA; assay: Chop mRNA by real-time PCR in wild-type and Perk−/− mouse embryonic fibroblasts; type: cell-based; parameters: dose or concentration left out as unconfirmed; conditions: Salubrinal, 16 hr
Method: as §1, §2
It is established that PERK-mediated eIF2α phosphorylation has role in the up-regulation of its target genes (see, e.g., Harding, H. P., et al., Mol Cell 6, 1099-1108 (2000); Harding et al., Nature 397, 271-274 (1999)). Whether eIF2α phosphorylation could increase AATF expression was determined. […]

[7] = test system: Akt1 mRNA; assay: Akt1 mRNA expression by real-time PCR; type: cell-based, rat; mouse; conditions: Tg 1 μM
Method: as §1, §2
Whether Akt1 expression is increased by ER stress was examined. The expression levels of Akt1 mRNA were measured in the presence of ER stress in INS-1 832/13, neuro2A, and mouse embryonic fibroblasts.

[8] = test system: AATF; assay: AATF immunoblot of cytoplasmic and nuclear extracts from INS-1 832/13 cells; type: cell-based, rat; conditions: Tg 1 μM
Method: Immunoblotting. Cells were lysed for 15 min on ice at 4° C. in ice-cold M-PER buffer (PIERCE, Rockford, Ill.) containing protease inhibitors. The lysates were then cleared by centrifuging the cells at 13,000 g. Lysates were normalized for total protein, separated by SDS-PAGE (15% gel or 5%-20% gradient gel), and transferred onto a polyvinylidene difluoride membrane. To detect human AATF protein, anti-AATF antibody from Bethyl (Montgomery, Tex.) was used. To detect rat AATF protein, a rabbit anti-AATF antibody generated using a peptide, RPREADPEADPEEATR, was used. Anti-actin and anti-myc (9E10) antibodies were purchased from Sigma (St. Louis, Mo.); anti-eIF2α was purchased from Santa Cruz Biotechnology (Santa Cruz, Calif.); anti-phospho-eIF2α, anti-Akt, anti-Akt1, anti-phospho-Akt, anti-Creb, anti-tubulin, and anti-caspase-3 antibodies were purchased from Cell Signaling (Danvers, Mass.).

[9] = test system: Akt; assay: Akt, Akt1 and phosphorylated Akt immunoblot in INS-1 832/13 cells; type: cell-based, rat; conditions: INS1 832/13 cells, Tg 1 μM
Method: as §3
It has been proposed that phosphorylation of Akt is important in protecting cells from apoptosis (Srinivasan, S., et al., Diabetes 54, 968-975 (2005). As shown in FIG. 4C (right panel), phosphorylation level of Akt was increased up to 8 hr after treatment, but decreased at 24 hr. To study the relationship between AATF suppression and Akt phosphorylation, AATF expression was suppressed using siRNA directed against AATF in INS-1 832/13 cells and the cells were treated with thapsigargin for 0, 3, and 8 hr, then Akt expression and Akt phosphorylation levels were measured by immunoblot. Both Akt expression and Akt phosphorylation levels were decreased by AATF siRNA (FIG. 4D). […] INS-1 832/13 cells were infected with the virus and Akt1 expression levels were measured.

## O[C@@H](CS)[C@@H](O)CS [DTT]
[1]; DTT 1 mM 2 hr, then 3 hour chase in normal media
  interaction of ATF6 and WFS1 post-stress: began to recover
[1]; DTT 1 mM, 3 hours post-treatment, time-dependent
  dissociation of ATF6 from WFS1: almost complete dissociation

## CC(C)C[C@@H](C=O)NC(=O)[C@H](CC(C)C)NC(=O)[C@H](CC(C)C)NC(=O)OCc1ccccc1 [MG132] (Cbz-Leu-Leu-Leu-aldehyde)
[2]
  AATF mRNA expression: up-regulated
[3]
  ATF6 protein levels: almost full recovery

## O=C(/C=C/c1ccccc1)NC(NC(=S)Nc1cccc2cccnc12)C(Cl)(Cl)Cl (centres unmarked) [salubrinal]
[4]; wild-type and Perk−/− mouse embryonic fibroblasts, Salubrinal 75 nM, 16 hr
  AATF expression: increased
[5]
  eIF2α phosphorylation levels: increased
[6]
  Chop expression: increased

## CN[C@@H]1C[C@H]2O[C@@](C)([C@@H]1OC)n1c3ccccc3c3c4c(c5c6ccccc6n2c5c31)C(=O)NC4 [staurosporin]
[2]
  AATF mRNA expression: not
[7]; INS-1 832/13, neuro2A and mouse embryonic fibroblasts, 16 hr, TM 5 μg/ml, MG132 2 μM, STR 0.05 and 0.01 μM
  increase of Akt1 mRNA expression: not

## C/C=C(/C)C(=O)O[C@H]1C(C)=C2[C@H]([C@@H]1OC(=O)CCCCCCC)[C@@](C)(OC(C)=O)C[C@H](OC(=O)CCC)[C@@]1(O)[C@H]2OC(=O)[C@@]1(C)O [thapsigargin]
[4]
  attenuation of the induction of AATF: not
  induction of AATF: attenuated
[2]
  AATF mRNA expression: up-regulated
[2]; INS-1 832/13 cells, Tg 0.5 μM, indicated times
  AATF mRNA expression, time course: continued to increase up to 24 hr
[8]
  AATF protein expression in cytoplasmic and nuclear extracts: up-regulated
[9]; at 24 hr
  phosphorylation level of Akt: decreased
[9]; up to 8 hr after treatment
  phosphorylation level of Akt: increased
[7]; INS1 832/13 cells
  time of peak Akt1 mRNA expression during ER stress: 24 h

## tunicamycin
[4]
  attenuation of the induction of AATF: not
  induction of AATF: attenuated
[2]
  AATF mRNA expression: up-regulated

Source: patent publication US20090281040A1, “Methods For Treating Endoplasmic Reticulum (ER) Stress Disorders” (priority 2008, published 2009)
